Patent US4656258A, “Macrocin derivatives” (Eli Lilly and Company, priority 1985, dated 1987)
In brackets after ≈: the same amount, converted by molar mass.

Columns and labels:
[1] = system: Pasteurella multocida 60A; assay: broth-dilution microtiter MIC; type: cell-based; details: avian isolate
Method: (§1) The MIC's in Table I were determined by standard agar-dilution assays. The MIC's in Table II were obtained using a conventional broth-dilution microtiter test.

[2] = system: Pasteurella multocida 17E; assay: broth-dilution microtiter MIC; type: cell-based; details: bovine isolate
Method: as §1

Streptococcus sp. 80 = assay: broth-dilution microtiter MIC; type: cell-based
Method: as §1

Staphylococcus aureus = assay: broth-dilution microtiter MIC; type: cell-based
Method: as §1

[3] = system: Mycoplasma hyopneumonia S-5972; assay: broth-dilution microtiter MIC; type: cell-based; details: S5972
Method: as §1

[4] = system: Staphylococcus aureus V41; assay: agar-dilution MIC; type: cell-based; details: Staphylococcus aureus V41, penicillin-resistant strain
Method: as §1

[5] = system: Streptococcus pneumoniae Park I; assay: agar-dilution MIC; type: cell-based
Method: as §1

[6] = system: Staphylococcus aureus X1.1; assay: agar-dilution MIC; type: cell-based
Method: as §1

[7] = system: Streptococcus pneumoniae Group D X66; assay: agar-dilution MIC; type: cell-based
Method: as §1

[8] = system: Staphylococcus epidermidis EPI2; assay: agar-dilution MIC; type: cell-based
Method: as §1

[9] = system: Staphylococcus epidermidis EPI1; assay: agar-dilution MIC; type: cell-based
Method: as §1

[10] = system: Streptococcus pyogenes C203; assay: agar-dilution MIC; type: cell-based
Method: as §1

[11] = system: Staphylococcus aureus X400; assay: agar-dilution MIC; type: cell-based; details: Staphylococcus aureus X400, methicillin-resistant strain
Method: as §1

[12] = system: Staphylococcus aureus S13E; assay: agar-dilution MIC; type: cell-based
Method: as §1

[13] = system: Haemophilus influenzae 76; assay: agar-dilution MIC; type: cell-based; details: Haemophilus influenzae 76, ampicillin-resistant strain
Method: as §1

[14] = system: Streptococcus pneumoniae Group D 9960; assay: agar-dilution MIC; type: cell-based; details: GROUPD9960
Method: as §1

[15] = system: Haemophilus influenzae C.L.; assay: agar-dilution MIC; type: cell-based; details: ampicillin-sensitive strain
Method: as §1

[16] = system: Klebsiella pneumoniae X26; assay: agar-dilution MIC; type: cell-based
Method: as §1

Eschericia coli TEM = assay: agar-dilution MIC; type: cell-based
Method: as §1

Mycoplasma gallisepticum = assay: antimycoplasmal activity in experimentally infected chicks; type: in vivo; details: gavage, 0.5 g/gal × 5, 21 days after infection; for Number with Antibodies / Number Tested: antibodies to M. gallisepticum; for Number with Antibodies / Number Tested / Number with Air-Sac Lesions / Number Treated: infected control 10/10, uninfected control 0/10; for Mortality: infected control 2/7
Method: In these tests infections were induced in chicks by injecting 0.2 ml of a broth culture of M. gallisepticum into the abdominal air sac of one- to three-day-old chicks. The compounds were administered by gavage at a dose equivalent to 0.5 g/gal two times on the day of infection, two times on the day following infection and one time on the third day. Twenty-one days after infection the chicks were weighed, a blood sample was taken, and the chicks were sacrificed. The presence or absence of air-sac lesions was recorded.

[17] = macrocin vs tylosin, lactenocin vs desmycosin; cited from earlier work

CCCC(=O)OC1C(C)OC(OC2C(C)OC(OC3C(CC=O)CC(C)C(=O)C=CC(C)=CC(COC4OC(C)C(O)C(O)C4OC)C(CC)OC(=O)CC(OC(C)=O)C3C)C(O)C2N(C)C)CC1(C)O (stereo not shown) [3-Acetyl-4"-(n-Butyryl)-macrocin, 3-O-Acetyl-4"-O-(n-Butyryl)macrocin]
MIC [1]: 50 µg/mL (≈ 49.3 µM)
MIC [2]: 50 µg/mL (≈ 49.3 µM)
MIC (Streptococcus sp. 80): 0.39 µg/mL (≈ 0.385 µM)
MIC (Staphylococcus aureus): 3.12 µg/mL (≈ 3.08 µM)
MIC [3]: 0.048 µg/mL (≈ 0.0473 µM)
MIC [4]: 1 µg/mL (≈ 0.986 µM)
MIC [5]: 0.25 µg/mL (≈ 0.246 µM)
MIC [6]: 1 µg/mL (≈ 0.986 µM)
MIC [7]: 2 µg/mL (≈ 1.97 µM)
MIC [8]: 2 µg/mL (≈ 1.97 µM)
MIC [9]: 1 µg/mL (≈ 0.986 µM)
MIC [10]: 0.5 µg/mL (≈ 0.493 µM)
MIC [11]: 2 µg/mL (≈ 1.97 µM)
MIC [12]: 2 µg/mL (≈ 1.97 µM)
MIC [13]: 32 µg/mL (≈ 31.6 µM)
MIC [14]: 2 µg/mL (≈ 1.97 µM)
MIC [15]: 32 µg/mL (≈ 31.6 µM)
MIC [16]: 64 µg/mL (≈ 63.1 µM)
MIC (Eschericia coli TEM): > 128 µg/mL
Number with Antibodies / Number Tested (Mycoplasma gallisepticum): 7/9
Mortality (Mycoplasma gallisepticum): 1/7
Number with Air-Sac Lesions / Number Treated (Mycoplasma gallisepticum): 7/10

CCC1OC(=O)CC(OC(C)=O)C(C)C(OC2OC(C)C(OC3CC(C)(O)C(OC(=O)CC(C)C)C(C)O3)C(N(C)C)C2O)C(CC=O)CC(C)C(=O)C=CC(C)=CC1COC1OC(C)C(O)C(O)C1OC (stereo not shown) [3-Acetyl-4"-Isovaleryl-macrocin, 3-O-acetyl-4"-O-isovalerylmacrocin]
MIC [1]: > 50 µg/mL
MIC [2]: 50 µg/mL (≈ 48.6 µM)
MIC (Streptococcus sp. 80): 0.39 µg/mL (≈ 0.379 µM)
MIC (Staphylococcus aureus): 1.56 µg/mL (≈ 1.52 µM)
MIC [3]: 0.048 µg/mL (≈ 0.0467 µM)
MIC [4]: 1 µg/mL (≈ 0.973 µM)
MIC [5]: 0.5 µg/mL (≈ 0.486 µM)
MIC [6]: 0.5 µg/mL (≈ 0.486 µM)
MIC [7]: 2 µg/mL (≈ 1.95 µM)
MIC [8]: 2 µg/mL (≈ 1.95 µM)
MIC [9]: 0.5 µg/mL (≈ 0.486 µM)
MIC [10]: 0.25 µg/mL (≈ 0.243 µM)
MIC [11]: 2 µg/mL (≈ 1.95 µM)
MIC [12]: 1 µg/mL (≈ 0.973 µM)
MIC [13]: 16 µg/mL (≈ 15.6 µM)
MIC [14]: 2 µg/mL (≈ 1.95 µM)
MIC [15]: 32 µg/mL (≈ 31.1 µM)
MIC [16]: 64 µg/mL (≈ 62.2 µM)
MIC (Eschericia coli TEM): 128 µg/mL (≈ 124 µM)
Number with Antibodies / Number Tested (Mycoplasma gallisepticum): 10/10
Mortality (Mycoplasma gallisepticum): 0/10
Number with Air-Sac Lesions / Number Treated (Mycoplasma gallisepticum): 1/10

CCC1OC(=O)CC(OC(C)=O)C(C)C(OC2OC(C)C(O)C(N(C)C)C2O)C(CC=O)CC(C)C(=O)C=CC(C)=CC1COC1OC(C)C(O)C(O)C1OC (stereo not shown) [3-Acetyl-lactenocin, 3-O-Acetyllactenocin]
MIC [1]: 25 µg/mL (≈ 31.3 µM)
MIC [2]: 12.5 µg/mL (≈ 15.6 µM)
MIC (Streptococcus sp. 80): 1.56 µg/mL (≈ 1.95 µM)
MIC (Staphylococcus aureus): 3.12 µg/mL (≈ 3.9 µM)
MIC [4]: 2 µg/mL (≈ 2.5 µM)
MIC [5]: 0.5 µg/mL (≈ 0.625 µM)
MIC [6]: 1 µg/mL (≈ 1.25 µM)
MIC [7]: 8 µg/mL (≈ 10 µM)
MIC [8]: 4 µg/mL (≈ 5 µM)
MIC [9]: 1 µg/mL (≈ 1.25 µM)
MIC [10]: 0.25 µg/mL (≈ 0.313 µM)
MIC [11]: 4 µg/mL (≈ 5 µM)
MIC [12]: 2 µg/mL (≈ 2.5 µM)
MIC [13]: 8 µg/mL (≈ 10 µM)
MIC [14]: 8 µg/mL (≈ 10 µM)
MIC [15]: 16 µg/mL (≈ 20 µM)
MIC [16]: 32 µg/mL (≈ 40 µM)
MIC (Eschericia coli TEM): 64 µg/mL (≈ 80 µM)

CCC1OC(=O)CC(OC(C)=O)C(C)C(OC2OC(C)C(OC3CC(C)(O)C(O)C(C)O3)C(N(C)C)C2O)C(CC=O)CC(C)C(=O)C=CC(C)=CC1COC1OC(C)C(O)C(O)C1OC (stereo not shown) [3-Acetyl-macrocin, 3-O-Acetylmacrocin]
MIC [1]: > 50 µg/mL
MIC [2]: 50 µg/mL (≈ 53 µM)
MIC (Streptococcus sp. 80): 1.56 µg/mL (≈ 1.65 µM)
MIC (Staphylococcus aureus): 1.56 µg/mL (≈ 1.65 µM)
MIC [4]: 1 µg/mL (≈ 1.06 µM)
MIC [5]: 0.5 µg/mL (≈ 0.53 µM)
MIC [6]: 0.5 µg/mL (≈ 0.53 µM)
MIC [7]: 2 µg/mL (≈ 2.12 µM)
MIC [8]: 2 µg/mL (≈ 2.12 µM)
MIC [9]: 0.5 µg/mL (≈ 0.53 µM)
MIC [10]: 0.25 µg/mL (≈ 0.265 µM)
MIC [11]: 2 µg/mL (≈ 2.12 µM)
MIC [12]: 1 µg/mL (≈ 1.06 µM)
MIC [13]: 16 µg/mL (≈ 16.9 µM)
MIC [14]: 2 µg/mL (≈ 2.12 µM)
MIC [15]: 32 µg/mL (≈ 33.9 µM)
MIC [16]: 64 µg/mL (≈ 67.8 µM)
MIC (Eschericia coli TEM): 64 µg/mL (≈ 67.8 µM)

CCC1OC(=O)CC(O)C(C)C(OC2OC(C)C(O)C(N(C)C)C2O)C(CC=O)CC(C)C(=O)C=CC(C)=CC1COC1OC(C)C(O)C(O)C1OC (stereo not shown) [lactenocin]
antibiotic activity relative to tylosin / desmycosin [17]: less than that of tylosin and desmycosin, respectively

CCC1OC(=O)CC(O)C(C)C(OC2OC(C)C(OC3CC(C)(O)C(O)C(C)O3)C(N(C)C)C2O)C(CC=O)CC(C)C(=O)C=CC(C)=CC1COC1OC(C)C(O)C(O)C1OC (stereo not shown) [macrocin]
antibiotic activity relative to tylosin / desmycosin [17]: less than that of tylosin
